Assay results as given in patent publication US12157746B2, “Tetrahydro-1H-pyrazino[2,1-a]isoindolylquinoline compounds for the treatment of autoimmune disease” (F. HOFFMANN-LA ROCHE AG, priority 2018, dated 2024).

Each compound was assayed against T1, human TLR8 (Homo sapiens, UniProt Q9NR97) (assay: HEK293-Blue-hTLR-8 cells assay). Details: HEK293-Blue-hTLR8 cells, R848 stimulation, 20 hrs, SEAP reporter; read-out: HEK/hTLR8 IC50.
T1 sequence (Q9NR97 27-1041): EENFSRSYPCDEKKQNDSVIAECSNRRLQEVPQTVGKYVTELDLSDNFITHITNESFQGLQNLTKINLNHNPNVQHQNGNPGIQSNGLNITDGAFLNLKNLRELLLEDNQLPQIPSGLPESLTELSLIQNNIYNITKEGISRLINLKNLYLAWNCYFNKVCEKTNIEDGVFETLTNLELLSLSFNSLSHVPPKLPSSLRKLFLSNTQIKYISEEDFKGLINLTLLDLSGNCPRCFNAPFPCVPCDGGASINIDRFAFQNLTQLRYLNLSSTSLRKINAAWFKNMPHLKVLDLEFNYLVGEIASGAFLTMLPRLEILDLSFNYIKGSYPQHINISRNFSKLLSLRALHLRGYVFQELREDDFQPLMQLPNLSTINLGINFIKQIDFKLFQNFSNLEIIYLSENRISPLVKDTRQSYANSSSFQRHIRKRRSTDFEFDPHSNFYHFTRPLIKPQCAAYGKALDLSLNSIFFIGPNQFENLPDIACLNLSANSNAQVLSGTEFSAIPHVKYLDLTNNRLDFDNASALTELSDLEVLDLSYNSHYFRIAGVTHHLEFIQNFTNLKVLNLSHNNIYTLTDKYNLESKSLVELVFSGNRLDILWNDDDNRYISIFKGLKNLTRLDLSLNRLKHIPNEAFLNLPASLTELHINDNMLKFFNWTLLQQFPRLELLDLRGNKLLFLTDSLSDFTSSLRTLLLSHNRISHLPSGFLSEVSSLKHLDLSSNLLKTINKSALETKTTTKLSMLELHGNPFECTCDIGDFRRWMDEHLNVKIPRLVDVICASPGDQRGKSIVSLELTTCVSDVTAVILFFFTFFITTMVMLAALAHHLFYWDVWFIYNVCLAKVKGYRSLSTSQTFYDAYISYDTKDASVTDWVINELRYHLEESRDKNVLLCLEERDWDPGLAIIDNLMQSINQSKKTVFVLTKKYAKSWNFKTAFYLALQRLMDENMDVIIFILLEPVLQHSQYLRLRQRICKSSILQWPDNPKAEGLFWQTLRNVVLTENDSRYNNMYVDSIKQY
Format: cell-based
Source text: HEK293-Blue-hTLR-8 Cells Assay:
A stable HEK293-Blue-hTLR-8 cell line was purchased from InvivoGen (Cat. #: hkb-htlr8, San Diego, California, USA). These cells were originally designed for studying the stimulation of human TLR8 by monitoring the activation of NF-κB. A SEAP (secreted embryonic alkaline phosphatase) reporter gene was placed under the control of the IFN-β minimal promoter fused to five NF-κB and AP-1-binding sites. The SEAP was induced by activating NF-κB and AP-1 via stimulating HEK-Blue hTLR8 cells with TLR8 ligands. Therefore the reporter expression was declined by TLR8 antagonist under the stimulation of a ligand, such as R848, for incubation of 20 hrs. The cell culture supernatant SEAP reporter activity was determined using QUANTI-Blue™kit (Cat. #: rep-qb1, Invivogen, San Diego, Ca, USA) at a wavelength of 640 nm, a detection medium that turns purple or blue in the presence of alkaline phosphatase.
HEK293-Blue-hTLR8 cells were incubated at a density of 250,000-450,000 cells/mL in a volume of 170 μL in a 96-well plate in Dulbecco's Modified Eagle's medium (DMEM) containing 4.5 g/L glucose, 50 U/mL penicillin, […], […], 2 mM L-glutamine, 10% (v/v) heat-inactivated fetal bovine serum with addition of 20 μL test compound 1n a serial dilution in the presence of final DMSO at 1% and 10 μL of 60 uM R848 in above DMEM, perform incubation under 37° C. in a CO2 incubator for 20 hrs. Then 20 μL of the supernatant from each well was incubated with 180 μL Quanti-blue substrate solution at 37° C. for 2 hrs and the absorbance was read at 620-655 nm using a spectrophotometer. The signaling pathway that TLR8 activation leads to downstream NF-κB activation has been widely accepted, and therefore similar reporter assay was modified for evaluating TLR8 antagonist.

| SMILES | IC50 [nM] |
| --- | --- |
| C[C@@H]1CN(c2ccc(C#N)c3ncccc23)C[C@@H]2c3ccc(C4CCNCC4)cc3CN12 [Example 9, 5-[(4R,10bS)-4-methyl-8-(4-piperidyl)-3,4,6,10b-tetrahydro-1H-pyrazino[2,1-a]isoindol-2-yl]quinoline-8-carbonitrile] | < 3.2 |
| C[C@@H]1CN(c2ccc(C#N)n3nccc23)C[C@@H]2c3ccc(N4C[C@@H](N)[C@](C)(O)C4)cc3CN12 [Example 108, 4-[(4R,10bS)-8-[(3R,4R)-4-amino-3-hydroxy-3-methyl-pyrrolidin-1-yl]-4-methyl-3,4,6,10b-tetrahydro-1H-pyrazino[2,1-a]isoindol-2-yl]pyrazolo[1,5-a]pyridine-7-carbonitrile] | 8.9 |
| CN[C@@H]1CN(c2ccc3c(c2)CN2[C@H](C)CN(c4ccc(C#N)c5ncccc45)C[C@H]32)C[C@H]1O [Example 43, 5-[(4R,10bS)-4-methyl-8-[(3R,4R)-3-hydroxy-4-(methylamino)pyrrolidin-1-yl]-3,4,6,10b-tetrahydro-1H-pyrazino[2,1-a]isoindol-2-yl]quinoline-8-carbonitrile] | < 3.2 |
| C[C@@H]1CN(c2ccc(C#N)c3ncccc23)C[C@@H]2c3ccc(N4C[C@H](N)[C@@](C)(O)C4)cc3CN12 [Example 45B, 5-[(4R,10bS)-8-[(3S,4S)-4-amino-3-hydroxy-3-methyl-pyrrolidin-1-yl]-4-methyl-3,4,6,10b-tetrahydro-1H-pyrazino[2,1-a]isoindol-2-yl]quinoline-8-carbonitrile] | 1.2 |
| C[C@@H]1CN(c2ccc(C#N)n3nccc23)C[C@@H]2c3ccc(N4CC[C@@H](N)C4)cc3CN12 [Example 96, 4-[(4R,10bS)-8-[(3R)-3-aminopyrrolidin-1-yl]-4-methyl-3,4,6,10b-tetrahydro-1H-pyrazino[2,1-a]isoindol-2-yl]pyrazolo[1,5-a]pyridine-7-carbonitrile] | 4 |
| C[C@@H]1CN(c2ccc(C#N)c3ncccc23)C[C@@H]2c3ccc(N4C[C@H](N)[C@@H](F)C4)cc3CN12 [Example 49, 5-[(4R,10bS)-8-[(3S,4S)-3-amino-4-fluoro-pyrrolidin-1-yl]-4-methyl-3,4,6,10b-tetrahydro-1H-pyrazino[2,1-a]isoindol-2-yl]quinoline-8-carbonitrile] | 0.6 |
| C[C@@H]1CN(c2ccc(C#N)c3ncsc23)C[C@@H]2c3ccc(N4CCNCC4)cc3CN12 [Example 6, 7-[(4R,10bS)-4-methyl-8-piperazin-1-yl-3,4,6,10b-tetrahydro-1H-pyrazino[2,1-a]isoindol-2-yl]-1,3-benzothiazole-4-carbonitrile] | < 3.2 |
| C[C@@H]1CN(c2ccc(C#N)c3ncccc23)C[C@@H]2c3ccc(N4CC5(CCN5)C4)cc3CN12 [Example 37, 5-[(4R,10bS)-8-(1,6-diazaspiro[3.3]heptan-6-yl)-4-methyl-3,4,6,10b-tetrahydro-1H-pyrazino[2,1-a]isoindol-2-yl]quinoline-8-carbonitrile] | < 3.2 |
| C[C@@H]1CN(c2ccc(C#N)c3ncccc23)C[C@@H]2c3ccc(N4CC(C)(N)C4)cc3CN12 [Example 39, 5-[(4R,10bS)-8-(3-amino-3-methyl-azetidin-1-yl)-4-methyl-3,4,6,10b-tetrahydro-1H-pyrazino[2,1-a]isoindol-2-yl]quinoline-8-carbonitrile] | < 0.3 |
| C[C@@H]1CN(c2ccc(C#N)c3ncccc23)C[C@@H]2c3ccc(NC4CNC4)cc3CN12 [Example 28, 5-[(4R,10S)-8-(azetidin-3-ylamino)-4-methyl-3,4,6,10b-tetrahydro-1H-pyrazino[2,1-a]isoindol-2-yl]quinoline-8-carbonitrile] | < 3.2 |
| C[C@@H]1CN(c2ccc(C#N)c3ncccc23)C[C@@H]2c3ccc(N4CC5CNCC(C4)O5)cc3CN12 [Example 14, 5-[(4R,10bS)-4-methyl-8-(9-oxa-3,7-diazabicyclo[3.3.1]nonan-3-yl)-3,4,6,10b-tetrahydro-1H-pyrazino[2,1-a]isoindol-2-yl]quinoline-8-carbonitrile] | < 3.2 |
